# Results as given in patent US6593352B2, “Substituted anthranilic acids, their use as a medicament or diagnostic, and medicament comprising them, and a pharmaceutical combination preparation containing a sodium/hydrogen exchange (NHE) blocker” (Aventis Pharma Deutschland GmbH, priority 2000, dated 2003).
# Target: T1, heart form of human NBC1 (Homo sapiens, UniProt Q9Y6R1)
# T1 construct: expressed in transfected cells
# T1 sequence (Q9Y6R1 1-1079): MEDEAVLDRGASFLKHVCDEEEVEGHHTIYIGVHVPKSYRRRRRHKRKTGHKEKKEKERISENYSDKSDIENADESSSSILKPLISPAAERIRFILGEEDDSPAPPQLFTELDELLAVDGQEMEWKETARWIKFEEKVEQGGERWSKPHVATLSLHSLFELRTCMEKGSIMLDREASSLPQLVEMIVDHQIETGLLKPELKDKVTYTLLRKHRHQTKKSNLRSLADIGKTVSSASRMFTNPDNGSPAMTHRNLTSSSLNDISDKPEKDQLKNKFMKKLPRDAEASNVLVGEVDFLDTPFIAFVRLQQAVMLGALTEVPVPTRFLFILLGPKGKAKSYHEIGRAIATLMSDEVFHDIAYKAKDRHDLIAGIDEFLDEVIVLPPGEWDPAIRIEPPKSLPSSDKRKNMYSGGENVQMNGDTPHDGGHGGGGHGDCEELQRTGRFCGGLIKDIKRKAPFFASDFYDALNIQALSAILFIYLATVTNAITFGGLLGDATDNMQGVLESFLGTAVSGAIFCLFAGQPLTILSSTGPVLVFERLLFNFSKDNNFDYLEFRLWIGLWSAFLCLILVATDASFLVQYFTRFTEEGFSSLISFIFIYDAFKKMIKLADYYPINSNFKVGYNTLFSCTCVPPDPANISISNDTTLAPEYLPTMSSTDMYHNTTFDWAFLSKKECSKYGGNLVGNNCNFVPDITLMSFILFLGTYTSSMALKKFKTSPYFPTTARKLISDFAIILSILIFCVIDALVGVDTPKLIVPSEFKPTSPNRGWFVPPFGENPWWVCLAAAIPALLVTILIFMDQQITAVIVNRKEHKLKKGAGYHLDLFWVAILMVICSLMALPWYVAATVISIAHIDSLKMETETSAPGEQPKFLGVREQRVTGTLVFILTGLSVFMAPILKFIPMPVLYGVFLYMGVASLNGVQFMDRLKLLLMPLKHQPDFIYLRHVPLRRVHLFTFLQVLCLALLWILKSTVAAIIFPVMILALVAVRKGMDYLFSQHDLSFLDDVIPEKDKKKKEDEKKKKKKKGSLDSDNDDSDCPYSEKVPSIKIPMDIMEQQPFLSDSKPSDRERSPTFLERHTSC
# Assay: NBC activity measurement (pHi recovery after acid load, BCECF, FLIPR)
# Format: cell-based
# Conditions: residual NBC activity at inhibitor concentration of 10 μM; CHO K1 cells transfected with heart form of human NBC1; NHE and NCBE blocked; duplicate determinations
# From the text: Firstly, the heart form of human NBC1 was cloned by RT-PCR. After confirmation of the sequence, the corresponding cDNAs were cloned into the vector pcDNA3.1+, which contains the neo gene as a selection marker for eukaryotic cells. For the amplification of the human heart form of NBC1, human heart mRNA (Clontech, Palo Alto, Calif., USA) was amplified using primers which cover the area in which the heart form differs from the kidney form. The heart form in this case differs only at the 5′ end of the coding sequence. The area coding for the first 41 amino acids of the kidney form is replaced in the heart form by an area coding for 85 amino acids (positions 118-370 from Abukadze et al., J. Biol. Chem. 273,17689-17695 (1998) or positions 45-294 from Choi et al., Am. J. Physiol. Cell Physiol. 276, C576-C584 (1999) replace positions 150-270 from Burnham et al. (see above.), J. Biol. Chem. 272, 19 111-19 114 (1997). The product of the PCR reaction was first cloned into the vector pCR2.1 and, after verification of the sequence, cloned into the cDNA of the kidney form of NBC1 by means of cleavage sites introduced by means of the PCR reaction. The construct obtained was checked for correct incorporation of the human heart NBC1-cDNA by sequencing. The plasmids obtained for the heart form of human NBC1 were transfected by means of the LipofectAmine™ reagent of the company LifeTechnologies (Gaithersburg, Md., USA) into the cell line CHO K1 (ovary cells of the Chinese hamster), which has no measurable NBC activity. After selection for transfected cells by means of growth in G418-containing medium (only cells which have obtained a neo gene by transfection can survive under these conditions), individual cells were isolated and cultured. Using the test described below, cell clones were identified in FLIPR which have a clear NBC activity. The best cell lines were used for the further tests and, to avoid a loss of the transfected sequence, cultured in G418-containing medium under continuous selection pressure.
# For the determination of the inhibitory activity of the active compounds on the heart form of human NBC 1, a test was constructed which represents a further development of the assay constructed for the testing of inhibitors of NCBE (Na^+dependent Cl^−/HCO3− exchanger) (EP 0 903 339) based on the acid load method (Sardet et al., Cell 56, 271-280 (1989); Faber et al., Cell. Physiol. Biochem. 6, 39-49 (1996). In this test, the recovery of the intracellular pH (pHi) after prior acidification is determined under conditions in which the NBC is active, the other pHiregulating systems of the CHO cells such as NHE (Na^+/H^+ exchanger) and NCBE (Na^+-dependent Cl^−/HCO3− exchanger) are blocked, however, by specific inhibitors. In this way, it is ensured that the recovery of the intracellular pH observed is based on the activity of NBC1.
# The transfected cells were inoculated into 96 well microtiter plates in a density of about 15,000 cells/well in 200 μl of growth medium and incubated overnight at 37° C. in a CO2 incubator. The intracellular pH of the transfected cells was determined using the pH-sensitive fluorescent dye BCECF (Molecular Probes (Eugene, Oreg., USA), the precursor BCECF-AM is employed). The cells were first loaded with BCECF-AM. The growth medium of the cells inoculated on the day before was manually removed, since the fetal calf serum present in the medium could interfere with the BCECF staining. For staining, 100 μl of NH4Cl stain buffer (20 mM NH4Cl, 115 mM NaCl, 1 mM MgSO4, 1 mM CaCl2, 5 mM KCl, 20 mMHEPES, 5 mM glucose; pH adjusted to 7.4 using 1 M NaOH) was added to the cells of each well, which contains 5 μM BCECF-AM. The cells were incubated with the stain solution at 37° C. in a CO2 incubator for 20 minutes. […]
row,Molecule,residual activity [%] at 10 μM [%]
1,"O=C(O)c1cc(S(=O)(=O)NCc2cccc(Cl)c2)c(Cl)cc1NCCCCc1ccccc1 [Example 10, 4-Chloro-2-phenylbutylamino-5-(3-chlorobenzylsulfamoyl)benzoic Acid]",75
2,"CCc1ccc(NS(=O)(=O)c2cc(C(=O)O)c(NCCCCc3ccccc3)cc2Cl)cc1 [Example 18, 4-Chloro-5-(4-ethylphenylsulfamoyl)-2-phenylbutylaminobenzoic acid]",79
3,"O=C(O)c1cc(S(=O)(=O)NCc2ccc(Cl)cc2Cl)c(Cl)cc1NCCCCc1ccccc1 [Example 13, 4-Chloro-2-phenylbutylamino-5-(2,4-dichlorobenzylsulfamoyl)benzoic acid]",60
4,"CC(C)CNS(=O)(=O)c1cc(C(=O)O)c(NCCCCc2ccccc2)cc1Cl [Example 21, 4-Chloro-5-(isobutylsulfamoyl)-2-phenylbutylaminobenzoic acid]",94
5,"O=C(O)c1cc(S(=O)(=O)NCc2ccc(F)c(Cl)c2)ccc1NCCCCc1ccccc1 [Example 3, 5-(3-Chloro-4-fluorobenzylsulfamoyl)-2-phenylbutylaminobenzoic acid]",88
6,4-Chloro-5-[(5-methylfuran-2-ylmethyl)sulfamoyl]-2-phenylbutylaminobenzoic acid [Example 15],79
7,"CC(C)c1cc(NCCCCc2ccccc2)c(C(=O)O)cc1S(=O)(=O)NCc1ccc(F)c(Cl)c1 [Example 5, 4-isopropyl-5-(3-chloro-4-fluorobenzylsulfamoyl)-2-phenylbutylaminobenzoic acid]",78
8,"O=C(O)c1cc(S(=O)(=O)NCc2ccncc2)c(Cl)cc1NCCCCc1ccccc1 [Example 8, 4-Chloro-2-phenylbutylamino-5-[(pyridin-4-ylmethyl)sulfamoyl]benzoic acid]",89
9,"NS(=O)(=O)c1ccc(CNS(=O)(=O)c2cc(C(=O)O)c(NCCCCc3ccccc3)cc2Cl)cc1 [Example 11, 4-Chloro-2-phenylbutylamino-5-(4-sulfamoylbenzylsulfamoyl)benzoic acid]",81
10,4-(4-Methylphenyl)-5-(3-chloro-4-fluorobenzylsulfamoyl)-2-phenylbutylaminobenzoic acid [Example 7],95
11,"O=C(O)c1cc(S(=O)(=O)NCc2ccc(F)c(Cl)c2)c(Br)cc1NCCCCc1ccccc1 [Example 2, 4-Bromo-5-(3-chloro-4-fluorobenzylsulfamoyl)-2-phenylbutylaminobenzoic acid]",56
12,4-Chloro-5-(phenylbutylsulfamoyl)-2-phenylbutylaminobenzoic Acid [Example 19],77
13,"O=C(O)c1cc(S(=O)(=O)NCc2cccc(Cl)c2Cl)c(Cl)cc1NCCCCc1ccccc1 [Example 12, 4-Chloro-2-phenylbutylamino-5-(2,3-dichlorobenzylsulfamoyl)benzoic acid]",37
14,"O=C(O)c1cc(S(=O)(=O)NCc2ccccn2)c(Cl)cc1NCCCCc1ccccc1 [Example 9, 4-Chloro-2-phenylbutylamino-5-[(pyridin-2-ylmethyl)sulfamoyl]benzoic acid]",89
15,"Cc1cc(NCCCCc2ccccc2)c(C(=O)O)cc1S(=O)(=O)NCc1ccc(F)c(Cl)c1 [Example 4, 4-Methyl-5-(3-chloro-4-fluorobenzylsulfamoyl)-2-phenylbutylaminobenzoic acid]",54
16,"O=C(O)c1cc(S(=O)(=O)NCCc2ccc(Cl)cc2)c(Cl)cc1NCCCCc1ccccc1 [Example 16, 4-Chloro-5-[2-(4-chlorophenyl)ethylsulfamoyl]-2-phenylbutylaminobenzoic acid]",91
17,"O=C(O)c1cc(S(=O)(=O)NCCc2cccs2)c(Cl)cc1NCCCCc1ccccc1 [Example 17, 4-Chloro-2-phenylbutylamino-5-(2-thiophen-2-ylethylsulfamoyl)benzoic acid]",95
18,"CCCc1cc(NCCCCc2ccccc2)c(C(=O)O)cc1S(=O)(=O)NCc1ccc(F)c(Cl)c1 [Example 6, 4-n-Propyl-5-(3-chloro-4-fluorobenzylsulfamoyl)-2-phenylbutylaminobenzoic acid]",69
19,"O=C(O)c1cc(S(=O)(=O)NCc2ccc(F)c(Cl)c2)c(Cl)cc1NCCCCc1ccccc1 [Example 1, 4-Chloro-5-(3-chloro-4-fluorobenzylsulfamoyl)-2-phenylbutylaminobenzoic acid]",46
20,"O=C(O)c1cc(S(=O)(=O)NCc2c(F)cccc2Cl)c(Cl)cc1NCCCCc1ccccc1 [Example 14, 4-Chloro-2-phenylbutylamino-5-(2-chloro-6-fluorobenzylsulfamoyl)benzoic acid]",87
21,4-Chloro-5-(cyclohexylmethylsulfamoyl)-2-phenylbutylaminobenzoic acid [Example 20],89

# System: isolated beating rat heart
# Assay: ischemia/reperfusion model (isolated beating rat heart)
# Conditions: combination of the NBC blocker with the NHE inhibitor cariporide mesilate
row,Molecule,cardioprotective action
1,"O=C(O)c1cc(S(=O)(=O)NCc2ccc(F)c(Cl)c2)c(Cl)cc1NCCCCc1ccccc1 [Example 1, 4-Chloro-5-(3-chloro-4-fluorobenzylsulfamoyl)-2-phenylbutylaminobenzoic acid]",greater than additive cardioprotective action
